# Assay: Case report: with autism given ibuprofen for children during a 7-day fever
# Format: in vivo, human
# Details: one child, ibuprofen about 30-40 mg/kg throughout 7 days
# From the text: Subject […] was born […], and developed normally until reaching […] (the “regression time”). […] The […] developed autistic symptoms after the regression time, such as ceasing to respond to their name and losing the skills they had attained so far as their neurological health progressively deteriorated. At or about the same time of the regression time, the […] also developed other medical problems including Vitiligo. After an evaluation, a therapist from the Early Child Intervention Program advised the parents that the child had red flags for autism. Following a viral and bacterial infection […], the […]'s autistic symptoms became severe. The […] was officially diagnosed with autism by a developmental pediatrician, and qualified for the Preschool Program for Children With Disabilities (PPCD). While in the PPCD program, the […] was evaluated by a speech therapist who diagnosed them with severe speech impairments. A video of the child showing severe autistic symptoms is available at http://www.youtube.com/watch?v=GbEeNJgaIQQ. When the child turned […] they developed another viral infection and developed a high fever that lasted over 7 days. […] They were more aware, calm and was saying more words. […] Gastrointestinal problems caused by the ibuprofen soon surfaced, however. […]
structure (smiles),measurement,setting,value
CC(C)Cc1ccc(C(C)C(=O)O)cc1 (centres unmarked) [ibuprofen],autistic symptoms while under ibuprofen,"autism, viral infection with fever",autistic symptoms decreased
same,gastrointestinal side effects of ibuprofen,little food intake,gastrointestinal lesions and ulcers caused by the ibuprofen
